# Laboratory results: patent US20250248979A1, “NOVEL GPX4 INHIBITORS AND USES THEREOF” (THE TRUSTEES OF COLUMBIA UNIVERSITY IN THE CITY OF NEW YORK, priority 2022, published 2025)
# Test system: not given
# Assay: not given
# Settings: not given
row,Plasma Stability t1/2 (min) mouse,SMILES
1,6.6 min,CC(OC(=O)CCl)C(C)(C)NC(=O)c1nn(C)c2cc(-c3ccc(N4CCOCC4)c(Cl)c3)ccc12 (racemic) [QW-737]
2,25.4 min,COc1c(Cl)cc(-c2ccc3c(C(=O)NC(C)(C)C(C)OC(=O)CCl)nn(C)c3c2)cc1Cl (racemic) [QW-745]
3,311 min,COc1ccc(-c2ccc3c(C(=O)NC(C)(C)CNC(=O)CCl)nn(C)c3c2)cc1Cl [QW-628]
4,6.2 min,COc1ccc(CNS(=O)(=O)c2ccc(-c3ccc4c(C(=O)NC(C)(C)COC(=O)CCl)nn(C)c4c3)cc2)cc1 [QW-658]
5,4.7 min,Cn1nc(C(=O)NC(C)(C)COC(=O)CCl)c2ccc(-c3ccc(OC(F)(F)F)c(Cl)c3)cc21 [QW-672]
6,23.8 min,COc1ccc(-c2ccc3c(C(=O)NC(COC(=O)CCl)C(F)(F)F)nn(C)c3c2)cc1Cl (centres unmarked) [QW-686]

# Test system: not listed separately
# Assay: Kinetic aqueous solubility
# Settings: 1% DMSO, Phosphate Buffered Saline pH 7.4, 1 hour, ambient, UV/Vis absorbance
row,SMILES,Solubility
1,COc1ccc(-c2ccc3c(C(=O)NC(C)(C)COC(=O)CCl)nn(C)c3c2)cc1 [QW-454],2.9 µM
2,Cn1nc(C(=O)NC(C)(C)COC(=O)CCl)c2ccc(-c3cccc(Cl)c3)cc21 [QW-458],6.1 µM

# Same assay, conditions: aqueous solubility; Table 9
row,SMILES,Solubility
1,COc1ccc(-c2ccc3c(C(=O)NC(C)(C)COC(=O)CCl)nn(C)c3c2)cc1 [QW-454],2.9 µM
2,Cn1nc(C(=O)NC(C)(C)COC(=O)CCl)c2ccc(-c3cccc(Cl)c3)cc21 [QW-458],6.1 µM

# Test system: HT-1080 cells
# Assay: Cellular dose response assay, HT-1080 with and without Fer-1
# Type: cell-based, human
# Settings: HT1080 + Fer-1; read-out: IC50 (uM) HT1080 + Fer-1
# In short: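 Following overnight attachment (1500 cells per well), triplicate wells got 2-fold serial dilutions across 12 points, with or without Fer-1 for HT-1080, at 0.4% final DMSO. After 48 h incubation, luminescent ATP-based viability (CellTiter-Glo) was recorded.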
row,IC50,SMILES
1,1.7 µM,CC(OC(=O)CCl)C(C)(C)NC(=O)c1nn(C)c2cc(-c3ccc(N4CCOCC4)c(Cl)c3)ccc12 (racemic) [QW-737]
2,1.8 µM,COc1c(Cl)cc(-c2ccc3c(C(=O)NC(C)(C)C(C)OC(=O)CCl)nn(C)c3c2)cc1Cl (racemic) [QW-745]
3,14.6 µM,COc1ccc(CNS(=O)(=O)c2ccc(-c3ccc4c(C(=O)NC(C)(C)COC(=O)CCl)nn(C)c4c3)cc2)cc1 [QW-658]
4,18.2 µM,Cn1nc(C(=O)NC(C)(C)COC(=O)CCl)c2ccc(-c3ccc(OC(F)(F)F)c(Cl)c3)cc21 [QW-672]

row,SMILES,IC50
1,COc1ccc(-c2ccc3c(C(=O)NC(C)(C)COC(=O)CCl)nn(C)c3c2)cc1 [QW-454],11.5 µM
2,Cn1nc(C(=O)NC(C)(C)COC(=O)CCl)c2ccc(-c3cccc(Cl)c3)cc21 [QW-458],24 µM

# Same assay, conditions: HT1080, without Fer-1; read-out: IC50 (uM) HT1080
row,IC50,SMILES
1,1 µM,CC(OC(=O)CCl)C(C)(C)NC(=O)c1nn(C)c2cc(-c3ccc(N4CCOCC4)c(Cl)c3)ccc12 (racemic) [QW-737]
2,1.6 µM,COc1c(Cl)cc(-c2ccc3c(C(=O)NC(C)(C)C(C)OC(=O)CCl)nn(C)c3c2)cc1Cl (racemic) [QW-745]
3,3.5 µM,COc1ccc(CNS(=O)(=O)c2ccc(-c3ccc4c(C(=O)NC(C)(C)COC(=O)CCl)nn(C)c4c3)cc2)cc1 [QW-658]
4,2.4 µM,Cn1nc(C(=O)NC(C)(C)COC(=O)CCl)c2ccc(-c3ccc(OC(F)(F)F)c(Cl)c3)cc21 [QW-672]

row,SMILES,IC50
1,COc1ccc(-c2ccc3c(C(=O)NC(C)(C)COC(=O)CCl)nn(C)c3c2)cc1 [QW-454],0.94 µM
2,Cn1nc(C(=O)NC(C)(C)COC(=O)CCl)c2ccc(-c3cccc(Cl)c3)cc21 [QW-458],2 µM

# Same assay, conditions: RSL3 as control
row,SMILES,"ferroptosis induction / potency in HT-1080 cells, result in words"
1,COc1ccc(-c2ccc3c(C(=O)NC(C)(C)COC(=O)CCl)nn(C)c3c2)cc1 [QW-454],sub-molar range cellular activities and decreased ferroptosis selectivity

# Same assay, conditions: ferroptosis selectivity, HT1080 + Fer-1 vs HT1080
row,SMILES,Selectivity
1,CC(OC(=O)CCl)C(C)(C)NC(=O)c1nn(C)c2cc(-c3ccc(N4CCOCC4)c(Cl)c3)ccc12 (racemic) [QW-737],1.7
2,COc1c(Cl)cc(-c2ccc3c(C(=O)NC(C)(C)C(C)OC(=O)CCl)nn(C)c3c2)cc1Cl (racemic) [QW-745],1.1
3,COc1ccc(-c2ccc3c(C(=O)NC(C)(C)COC(=O)CCl)nn(C)c3c2)cc1 [QW-454],12.2
4,Cn1nc(C(=O)NC(C)(C)COC(=O)CCl)c2ccc(-c3cccc(Cl)c3)cc21 [QW-458],12
5,COc1ccc(CNS(=O)(=O)c2ccc(-c3ccc4c(C(=O)NC(C)(C)COC(=O)CCl)nn(C)c4c3)cc2)cc1 [QW-658],4.2
6,Cn1nc(C(=O)NC(C)(C)COC(=O)CCl)c2ccc(-c3ccc(OC(F)(F)F)c(Cl)c3)cc21 [QW-672],7.6

# Test system: not given
# Assay: not given
# Settings: not given
# Remark: another data set of the same source
row,Plasma Stability t1/2 (min) human,SMILES
1,275 min,CC(OC(=O)CCl)C(C)(C)NC(=O)c1nn(C)c2cc(-c3ccc(N4CCOCC4)c(Cl)c3)ccc12 (racemic) [QW-737]
2,245 min,COc1c(Cl)cc(-c2ccc3c(C(=O)NC(C)(C)C(C)OC(=O)CCl)nn(C)c3c2)cc1Cl (racemic) [QW-745]
3,243 min,COc1ccc(-c2ccc3c(C(=O)NC(C)(C)CNC(=O)CCl)nn(C)c3c2)cc1Cl [QW-628]
4,12.5 min,COc1ccc(CNS(=O)(=O)c2ccc(-c3ccc4c(C(=O)NC(C)(C)COC(=O)CCl)nn(C)c4c3)cc2)cc1 [QW-658]
5,47.9 min,Cn1nc(C(=O)NC(C)(C)COC(=O)CCl)c2ccc(-c3ccc(OC(F)(F)F)c(Cl)c3)cc21 [QW-672]
6,16.6 min,COc1ccc(-c2ccc3c(C(=O)NC(COC(=O)CCl)C(F)(F)F)nn(C)c3c2)cc1Cl (centres unmarked) [QW-686]

# Target: T1, GPX4 (Homo sapiens, UniProt P36969)
# T1 sequence (P36969 1-170 isoform P36969-2): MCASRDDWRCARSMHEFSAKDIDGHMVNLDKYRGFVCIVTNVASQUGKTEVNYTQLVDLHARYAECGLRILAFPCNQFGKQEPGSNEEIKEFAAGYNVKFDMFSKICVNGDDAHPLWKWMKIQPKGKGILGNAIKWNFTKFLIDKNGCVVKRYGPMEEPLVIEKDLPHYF
# Assay: GPX4 activity assay in cell lysates (NADPH-coupled)
# Type: biochemical
# Design: endogenous in cells; host or cells: A-673 cell lysate
# Settings: 2.5 μM
# In short: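 Native GPX4 in lysates of A-673 cells grown with 20 nM sodium selenite; lysate preincubated with compound 45 min at 37 °C in pH 8.0 buffer with 3 mM GSH, 0.5 mM NADPH and glutathione reductase. Reaction started with phosphatidylcholine hydroperoxide; NADPH consumption followed at 340 nm over 25 min; triplicates.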
row,GPX4% inhibition at 2.5 μM,SMILES
1,86.4 ± 7.3%,CC(OC(=O)CCl)C(C)(C)NC(=O)c1nn(C)c2cc(-c3ccc(N4CCOCC4)c(Cl)c3)ccc12 (racemic) [QW-737]
2,55.4 ± 8.1%,COc1c(Cl)cc(-c2ccc3c(C(=O)NC(C)(C)C(C)OC(=O)CCl)nn(C)c3c2)cc1Cl (racemic) [QW-745]
3,33.6 ± 6.5%,COc1ccc(-c2ccc3c(C(=O)NC(C)(C)CNC(=O)CCl)nn(C)c3c2)cc1Cl [QW-628]
4,26.3 ± 63.2%,COc1ccc(CNS(=O)(=O)c2ccc(-c3ccc4c(C(=O)NC(C)(C)COC(=O)CCl)nn(C)c4c3)cc2)cc1 [QW-658]
5,68.0 ± 45.2%,Cn1nc(C(=O)NC(C)(C)COC(=O)CCl)c2ccc(-c3ccc(OC(F)(F)F)c(Cl)c3)cc21 [QW-672]
6,35.8 ± 14.3%,COc1ccc(-c2ccc3c(C(=O)NC(COC(=O)CCl)C(F)(F)F)nn(C)c3c2)cc1Cl (centres unmarked) [QW-686]

# Same assay, conditions: 5 μM
row,SMILES,GPX4% inhibition at 5 μM
1,COc1ccc(-c2ccc3c(C(=O)NC(C)(C)COC(=O)CCl)nn(C)c3c2)cc1 [QW-454],86.8 ± 2.6%
2,Cn1nc(C(=O)NC(C)(C)COC(=O)CCl)c2ccc(-c3cccc(Cl)c3)cc21 [QW-458],80.5 ± 3.0%
3,COc1ccc(CNS(=O)(=O)c2ccc(-c3ccc4c(C(=O)NC(C)(C)COC(=O)CCl)nn(C)c4c3)cc2)cc1 [QW-658],20.9 ± 14.0%

# Test system: not listed separately
# Assay: in vitro
# Type: in vitro ADME, human
# Settings: human, microsomes
# Method: (§1) […]. The incubation timepoints measured were 0, 5, 10, 15, 30, and 45 minutes. All samples were prepared in duplicate and analyzed by LC-MS/MS.
row,Microsome Stability t1/2 (min) human,SMILES
1,8.6 min,CC(OC(=O)CCl)C(C)(C)NC(=O)c1nn(C)c2cc(-c3ccc(N4CCOCC4)c(Cl)c3)ccc12 (racemic) [QW-737]
2,19.5 min,COc1c(Cl)cc(-c2ccc3c(C(=O)NC(C)(C)C(C)OC(=O)CCl)nn(C)c3c2)cc1Cl (racemic) [QW-745]
3,15 min,COc1ccc(-c2ccc3c(C(=O)NC(C)(C)CNC(=O)CCl)nn(C)c3c2)cc1Cl [QW-628]
4,17 min,Cn1nc(C(=O)NC(C)(C)COC(=O)CCl)c2ccc(-c3ccc(OC(F)(F)F)c(Cl)c3)cc21 [QW-672]

row,SMILES,Microsome Stability t1/2 (min) human
1,COc1ccc(-c2ccc3c(C(=O)NC(C)(C)COC(=O)CCl)nn(C)c3c2)cc1 [QW-454],1.8 min
2,Cn1nc(C(=O)NC(C)(C)COC(=O)CCl)c2ccc(-c3cccc(Cl)c3)cc21 [QW-458],1.9 min

# Test system: not listed separately
# Assay: in vitro
# Type: in vitro ADME, mouse
# Settings: mouse, microsomes
# Method: as §1
row,Microsome Stability t1/2 (min) mouse,SMILES
1,7.4 min,CC(OC(=O)CCl)C(C)(C)NC(=O)c1nn(C)c2cc(-c3ccc(N4CCOCC4)c(Cl)c3)ccc12 (racemic) [QW-737]
2,13.0 min,COc1c(Cl)cc(-c2ccc3c(C(=O)NC(C)(C)C(C)OC(=O)CCl)nn(C)c3c2)cc1Cl (racemic) [QW-745]
3,19 min,COc1ccc(-c2ccc3c(C(=O)NC(C)(C)CNC(=O)CCl)nn(C)c3c2)cc1Cl [QW-628]
4,19 min,Cn1nc(C(=O)NC(C)(C)COC(=O)CCl)c2ccc(-c3ccc(OC(F)(F)F)c(Cl)c3)cc21 [QW-672]

row,SMILES,Microsome Stability t1/2 (min) mouse
1,COc1ccc(-c2ccc3c(C(=O)NC(C)(C)COC(=O)CCl)nn(C)c3c2)cc1 [QW-454],1.7 min
2,Cn1nc(C(=O)NC(C)(C)COC(=O)CCl)c2ccc(-c3cccc(Cl)c3)cc21 [QW-458],1.9 min
